Molecular target: MAP4K4 (Homo sapiens, UniProt O95819)
Assay: MAP4K4 kinase assay (in-house)
Format: biochemical
From the text: Signaling pathways mediating anticancer activity. […] We established the MAP4K4 kinase assay in-house and confirmed that the compounds are indeed potent MAP4K4 inhibitors.

MAP4K4, sequence (O95819 whole entry): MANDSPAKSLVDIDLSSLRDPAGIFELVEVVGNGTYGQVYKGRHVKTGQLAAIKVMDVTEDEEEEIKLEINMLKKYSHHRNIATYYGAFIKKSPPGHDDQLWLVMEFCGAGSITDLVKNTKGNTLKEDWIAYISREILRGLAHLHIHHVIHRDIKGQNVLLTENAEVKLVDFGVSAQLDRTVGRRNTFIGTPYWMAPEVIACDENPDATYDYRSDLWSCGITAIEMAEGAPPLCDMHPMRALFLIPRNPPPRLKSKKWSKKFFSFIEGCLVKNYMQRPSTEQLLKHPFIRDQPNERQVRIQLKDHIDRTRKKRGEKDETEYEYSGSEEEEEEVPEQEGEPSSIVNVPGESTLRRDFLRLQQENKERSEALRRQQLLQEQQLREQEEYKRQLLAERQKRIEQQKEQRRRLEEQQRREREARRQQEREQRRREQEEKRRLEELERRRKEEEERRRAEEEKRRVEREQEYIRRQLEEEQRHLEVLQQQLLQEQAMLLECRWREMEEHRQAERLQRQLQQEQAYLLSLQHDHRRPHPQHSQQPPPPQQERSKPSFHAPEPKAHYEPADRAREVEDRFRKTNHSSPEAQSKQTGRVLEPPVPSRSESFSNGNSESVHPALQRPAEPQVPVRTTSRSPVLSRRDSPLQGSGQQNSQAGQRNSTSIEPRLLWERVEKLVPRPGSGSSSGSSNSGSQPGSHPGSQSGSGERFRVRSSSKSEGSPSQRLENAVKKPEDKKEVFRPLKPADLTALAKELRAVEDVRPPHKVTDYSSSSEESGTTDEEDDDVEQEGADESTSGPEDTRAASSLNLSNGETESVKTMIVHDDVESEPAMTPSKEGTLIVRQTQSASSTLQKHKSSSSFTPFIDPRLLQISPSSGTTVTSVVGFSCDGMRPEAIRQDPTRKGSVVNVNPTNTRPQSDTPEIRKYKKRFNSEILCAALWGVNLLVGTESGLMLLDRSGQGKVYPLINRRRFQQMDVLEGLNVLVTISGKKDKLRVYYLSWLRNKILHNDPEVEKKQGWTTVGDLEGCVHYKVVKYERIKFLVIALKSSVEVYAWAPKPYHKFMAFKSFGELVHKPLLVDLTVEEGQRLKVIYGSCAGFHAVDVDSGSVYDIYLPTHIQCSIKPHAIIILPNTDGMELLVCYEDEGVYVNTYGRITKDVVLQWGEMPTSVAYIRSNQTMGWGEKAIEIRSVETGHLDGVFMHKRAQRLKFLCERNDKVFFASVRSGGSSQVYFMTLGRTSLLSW

Compound | IC50 [nM]
COc1ccc2[nH]c(C(=O)c3cnc4[nH]ccc4c3)cc2c1 [Cmpd 33, (5-methoxy-1H-indol-2-yl)(1H-pyrrolo[2,3-b]pyridin-5-yl)methanone] | 46
COc1ccc2[nH]c(C(=O)c3ccc4[nH]nc(F)c4c3)cc2c1 [Cmpd 21, (3-fluoro-1H-indazol-5-yl)(5-methoxy-1H-indol-2-yl)methanone] | 100
COc1ccc2[nH]c(C(=O)c3ccc4[nH]nnc4c3)cc2c1 [Cmpd 36, (1H-benzo[d][1,2,3]triazol-5-yl)(5-methoxy-1H-indol-2-yl)methanone] | 570
COc1ccc2[nH]c(C(=O)c3ccc4[nH]nc(Cl)c4c3)cc2c1 [Cmpd 20, (3-chloro-1H-indazol-5-yl)(5-methoxy-1H-indol-2-yl)methanone] | 310
COc1cccc2cc(C(=O)c3ccc4[nH]nc(C)c4c3)[nH]c12 [Cmpd 28, (7-methoxy-1H-indol-2-yl)(3-methyl-1H-indazol-5-yl)methanone] | 650
COc1cc2cc(C(=O)c3ccc4[nH]nc(C)c4c3)[nH]c2cn1 [Cmpd 31, (5-methoxy-1H-pyrrolo[2,3-c]pyridin-2-yl)(3-methyl-1H-indazol-5-yl)methanone] | 13
COc1ccc2[nH]c(C(=O)c3ccc4[nH]cc(C)c4c3)cc2c1 [Cmpd 4, (5-methoxy-1H-indol-2-yl)(3-methyl-1H-indol-5-yl)methanone] | 380
COc1cccc2[nH]c(C(=O)c3ccc4[nH]nc(C)c4c3)cc12 [Cmpd 29, (4-methoxy-1H-indol-2-yl)(3-methyl-1H-indazol-5-yl)methanone] | 650
COc1ccc2[nH]c(C(=O)c3ccc4[nH]cc(Cl)c4c3)cc2c1 [Cmpd 9, (3-chloro-1H-indol-5-yl)(5-methoxy-1H-indol-2-yl)methanone] | 1700
COc1ccc2[nH]c(C(=O)c3ccc4[nH]nc(CN5CCOCC5)c4c3)cc2c1 [Cmpd 22, (5-methoxy-1H-indol-2-yl)(3-(morpholinomethyl)-1H-indazol-5-yl)methanone] | 21000
CCc1n[nH]c2ccc(C(=O)c3cc4cc(OC)ccc4[nH]3)cc12 [Cmpd 19, (3-ethyl-1H-indazol-5-yl)(5-methoxy-1H-indol-2-yl)methanone] | 9
Cc1c[nH]c2ccc(C(=O)c3cc4cc(O)ccc4[nH]3)cc12 [Cmpd 12, (5-hydroxy-1H-indol-2-yl)(3-methyl-1H-indol-5-yl)methanone] | 1000
COc1ccc2[nH]c(C(=O)c3ccc4[nH]ccc4c3)c(C)c2c1 [Cmpd 5, (1H-indol-5-yl)(5-methoxy-3-methyl-1H-indol-2-yl)methanone] | 300
COc1ccc2[nH]c(C(=O)c3ccc4[nH]c(C(F)(F)F)nc4c3)cc2c1 [Cmpd 35, (5-methoxy-1H-indol-2-yl)(2-(trifluoromethyl)-1H-benzo[d]imidazol-5-yl)methanone] | 7500
COc1ccc2[nH]c(C(=O)c3ccc4[nH]ncc4c3)cc2c1Cl [Cmpd 24, (4-chloro-5-methoxy-1H-indol-2-yl)(1H-indazol-5-yl)methanone] | 12000
